Structures can show the parent of a compound that is named as a salt.
| Compound | melting point |
| --- | --- |
| Cl.Cl.O=[N+]([O-])c1ccc(-n2cnc(Cn3ccnc3)c2)cc1 | 245 to 246 °C |
| Cc1cnc(C)n1Cc1cn(-c2ccc(Cl)c(Cl)c2)cn1.Cl.Cl | > 250 °C |
| Cc1nccn1Cc1ccn(-c2ccc(Cl)c(Cl)c2)n1.Cl | 204 to 205 °C |
| CSc1nccn1Cc1cn(-c2ccc(Cl)c(C)c2)cn1.Cl.Cl | 202 to 204 °C (dec.) |
| Cl.Cl.FC(F)(F)Oc1cccc(-n2cnc(Cn3ccnc3)c2)c1 | 233 to 234 °C |
| Cl.Cl.Clc1cccc(-n2cnc(Cn3ccnc3)c2)c1 | > 200 °C (dec.) |
| Cl.Cl.Fc1cc(-n2cnc(Cn3ccnc3)c2)cc(C(F)(F)F)c1 | 233 to 234 °C |
| Cl.Cl.c1cn(Cc2cn(-c3ccc4c(c3)CCC4)cn2)cn1 | 214 to 216 °C |
| COc1cc(-n2cnc(Cn3ccnc3)c2)cc(C(F)(F)F)c1.Cl.Cl | 244 to 246 °C |
| CC(C)(C)c1cccc(-n2cnc(Cn3ccnc3)c2)c1.Cl.Cl | > 200 °C (dec.) |
| Cl.Cl.FC(F)(F)Oc1ccc(-n2cnc(Cn3ccnc3)c2)cc1Cl | 212 to 213 °C |
| Cl.Cl.FC(F)c1cccc(-n2cnc(Cn3ccnc3)c2)c1 | 216 to 217 °C |
| CNc1nccn1Cc1cn(-c2ccc(Cl)c(Cl)c2)cn1.Cl | > 250 °C |
| CNc1nccn1Cc1ncn(-c2ccc(Cl)c(Cl)c2)c1CO.Cl | > 180 °C (dec.) |
| Cc1nccn1Cc1cn(-c2cc(F)cc(Br)c2)cn1.Cl.Cl | > 200 °C (dec.) |
| Cl.Cl.Fc1cc(Br)cc(-n2cnc(Cn3ccnc3)c2)c1 | > 200 °C (dec.) |
| Cc1nccn1Cc1cn(-c2ccc3c(c2)OC(F)(F)O3)cn1.Cl.Cl | > 250 °C |
| Cl.Cl.FC(F)(F)Sc1ccc(-n2cnc(Cn3ccnc3)c2)cc1Cl | 244 to 245 °C |
| Cc1nccn1Cc1cn(-c2cc3ccccc3cn2)cn1.Cl.Cl | > 250 °C |
| Cc1cc(-n2cnc(Cn3ccnc3)c2)ccc1F.Cl.Cl | 242 to 243 °C |
| CSc1ccc(-n2cnc(Cn3ccnc3)c2)cc1.Cl.Cl | 233 to 234 °C |
| Cl.Cl.Fc1ccc(-n2cnc(Cn3ccnc3)c2)cc1C(F)(F)F | > 246 °C (dec.) |

| Compound | melting point |
| --- | --- |
| Cc1ccc(-n2cnc(Cn3ccnc3)c2)cc1C(F)(F)F.Cl.Cl | > 250 °C |
| COc1cc(-n2cnc(Cn3ccnc3)c2)ccc1Cl.Cl.Cl | 221 to 222 °C |
| COc1cc(-n2cnc(Cn3ccnc3)c2)ccc1F.Cl.Cl | 174 to 178 °C |
| Cl.Cl.Clc1ccc(-n2cnc(Cn3ccnc3)c2)cc1Cl | > 250 °C |
| Cl.Cl.Clc1ccc(-n2cnc(Cn3ccnc3)c2)cc1 | 228 to 229 °C |
| Cl.Cl.c1cn(Cc2cn(-c3ccc4c(c3)OCO4)cn2)cn1 | 197 to 198 °C |
| Cc1ccc(-n2cnc(Cn3ccnc3)c2)cc1F.Cl.Cl | 223 to 224 °C |
| COc1ccc(-n2cnc(Cn3ccnc3)c2)cc1Cl.Cl.Cl | 245 to 246 °C |
| Cc1nccn1Cc1cn(-c2ccc(Cl)cc2F)cn1.Cl.Cl | 235 to 236 °C |
| Cl.Cl.Fc1cc(Cl)ccc1-n1cnc(Cn2ccnc2)c1 | > 212 °C (dec.) |
| Brc1ccc(-n2cnc(Cn3ccnc3)c2)cc1.Cl.Cl | 237 to 239 °C |
| Cl.Cl.c1ccc(COc2ccc(-n3cnc(Cn4ccnc4)c3)cc2)cc1 | 224 to 225 °C |
| COc1cc(-n2cnc(Cn3ccnc3)c2)ccc1C.Cl.Cl | 249 to 251 °C |
| Cl.Cl.FC(F)(F)c1ccc(-n2cnc(Cn3ccnc3)c2)cc1 | 220 to 222 °C |
| Cc1nccn1Cc1cn(-c2ccc3c(c2)COC3)cn1.Cl.Cl | > 250 °C |
| Cc1ncn(Cc2cn(-c3ccc(Cl)c(Cl)c3)cn2)c1C.Cl.Cl | > 250 °C |
| COc1cccc(-n2cnc(Cn3ccnc3)c2)c1.Cl.Cl | 219 to 220 °C |
| Cl.Cl.Clc1ccc(-n2cnc(Cn3ccnc3-c3ccccc3)c2)cc1Cl | 197 to 198 °C |
| Cl.Cl.FC(F)(F)c1cc(-n2cnc(Cn3ccnc3)c2)ccc1Cl | > 250 °C |
| Cl.Cl.Fc1ccc(-n2cnc(Cn3ccnc3)c2)cc1Cl | 210 to 212 °C |
| Cc1ccc(-n2cnc(Cn3ccnc3)c2)cc1C (as salt: hydrochloride) [Example 21] | 218 to 219 °C |

Continued, values first:

| melting point | Compound |
| --- | --- |
| > 250 °C | Cc1nccn1Cc1cn(-c2ccc([N+](=O)[O-])cc2)cn1.Cl.Cl |
| 196 to 197 °C | CCc1nccn1Cc1cn(-c2ccc([N+](=O)[O-])cc2)cn1.Cl.Cl |
| > 200 °C (dec.) | CSc1cccc(-n2cnc(Cn3ccnc3C)c2)c1.Cl.Cl |
| 237 to 239 °C | CCc1nccn1Cc1cn(-c2cccc(OC(F)(F)F)c2)cn1.Cl.Cl |
| 205 °C (dec.) | CCc1nccn1Cc1cn(-c2cccc(C(C)(C)C)c2)cn1.Cl.Cl |
| > 250 °C | CCc1nccn1Cc1cn(-c2ccc(OC(F)(F)F)c(Cl)c2)cn1.Cl.Cl |
| > 250 °C | CCc1nccn1Cc1cn(-c2ccc(C)c(C)c2)cn1.Cl.Cl |
| 220 to 222 °C | Cc1nccn1Cc1cn(-c2cccc(OC(F)F)c2)cn1.Cl.Cl |
| 205 to 206 °C | Cl.Cl.FC(F)Oc1cccc(-n2cnc(Cn3ccnc3)c2)c1 |
| 219 to 220 °C | CCc1nccn1Cc1cn(-c2cccc(C(F)F)c2)cn1.Cl.Cl |
| 249 to 251 °C | Cc1ccc(-n2cnc(Cn3ccnc3C)c2)cc1C.Cl.Cl |
| 237 to 239 °C (dec.) | CCc1nccn1Cc1cn(-c2ccc3c(c2)OC(F)(F)O3)cn1.Cl.Cl |
| 214 to 215 °C | CCc1nccn1Cc1cn(-c2ccc(SC(F)(F)F)c(Cl)c2)cn1.Cl.Cl |
| 195 to 198 °C | Cc1nccn1Cc1cn(-c2ccc(SC(F)(F)F)c(Cl)c2)cn1.Cl.Cl |
| 216 to 218 °C | CCc1nccn1Cc1cn(-c2ccc(OC(F)(F)F)cc2)cn1.Cl.Cl |
| 183 to 185 °C | CCc1nccn1Cc1cn(-c2ccc(SC(F)(F)F)cc2)cn1.Cl.Cl |
| 249 to 250 °C | Cc1nccn1Cc1cn(-c2ccc(SC(F)(F)F)cc2)cn1.Cl.Cl |
| > 250 °C | Cc1ccc(-n2cnc(Cn3ccnc3C)c2)cc1.Cl.Cl |
| 228 to 229 °C | Cc1ccc(-n2cnc(Cn3ccnc3)c2)cc1.Cl.Cl |

| melting point | Compound |
| --- | --- |
| 210 to 212 °C | CCc1nccn1Cc1cn(-c2ccc(F)c(C)c2)cn1.Cl.Cl |
| 161 to 162 °C | CCc1nccn1Cc1cn(-c2ccc(SC)cc2)cn1.Cl.Cl |
| 218 to 220 °C | Cc1nccn1Cc1cn(-c2cccc(C(F)(F)F)c2)cn1.Cl.Cl |
| 216 to 218 °C | CCc1nccn1Cc1cn(-c2cccc(C(F)(F)F)c2)cn1.Cl.Cl |
| > 238 °C (dec.) | CCc1nccn1Cc1cn(-c2ccc(F)c(C(F)(F)F)c2)cn1.Cl.Cl |
| > 250 °C | CCc1nccn1Cc1cn(-c2ccc(C)c(C(F)(F)F)c2)cn1.Cl.Cl |
| 244 to 246 °C (dec.) | CCc1nccn1Cc1cn(-c2ccc(Cl)c(OC)c2)cn1.Cl.Cl |
| > 250 °C | COc1cc(-n2cnc(Cn3ccnc3C)c2)ccc1Cl.Cl.Cl |
| > 220 °C (dec.) | COc1cc(-n2cnc(Cn3ccnc3C)c2)ccc1F.Cl.Cl |
| 200 to 201 °C | CCc1nccn1Cc1cn(-c2ccc(Cl)cc2)cn1.Cl.Cl |
| > 250 °C | CCc1nccn1Cc1cn(-c2ccc3c(c2)OCO3)cn1.Cl.Cl |
| > 250 °C | Cc1ccc(-n2cnc(Cn3ccnc3C)c2)cc1F.Cl.Cl |
| > 250 °C | CCc1nccn1Cc1cn(-c2ccc(C)c(F)c2)cn1.Cl.Cl |
| 240 to 241 °C | COc1ccc(-n2cnc(Cn3ccnc3C)c2)cc1Cl.Cl.Cl |
| 248 to 249 °C | CCc1nccn1Cc1cn(-c2ccc(Cl)cc2F)cn1.Cl.Cl |
| > 250 °C | CCc1nccn1Cc1cn(-c2ccc(Br)cc2)cn1.Cl.Cl |
| 199 to 200 °C | CCc1nccn1Cc1cn(-c2ccc(OC(F)F)cc2)cn1.Cl.Cl |
| 228 to 229 °C | Cc1nccn1Cc1cn(-c2ccc(OC(F)F)cc2)cn1.Cl.Cl |
| 222 to 223 °C | CCc1nccn1Cc1cn(-c2ccc(OCc3ccccc3)cc2)cn1.Cl.Cl |

| melting point | Compound |
| --- | --- |
| > 250 °C | CCc1nccn1Cc1cn(-c2ccc(C)c(OC)c2)cn1.Cl.Cl |
| 240 to 242 °C | CCc1nccn1Cc1cn(-c2ccc(C(F)(F)F)cc2)cn1.Cl.Cl |
| 246 to 248 °C | Cc1nccn1Cc1cn(-c2ccc(C(F)(F)F)cc2)cn1.Cl.Cl |
| > 108 °C (dec.) | CCc1nccn1Cc1cn(-c2ccc3c(c2)COC3)cn1.Cl.Cl |
| 238 to 240 °C | COc1ccc(-n2cnc(Cn3ccnc3C)c2)cc1F.Cl.Cl |
| 218 to 220 °C | CCc1nccn1Cc1cn(-c2ccc(OC)c(F)c2)cn1.Cl.Cl |
| > 250 °C | COc1ccc(-n2cnc(Cn3ccnc3C)c2)cc1.Cl.Cl |
| 246 to 248 °C | CCc1nccn1Cc1cn(-c2cccc(OC)c2)cn1.Cl.Cl |
| 242 to 243 °C | COc1cccc(-n2cnc(Cn3ccnc3C)c2)c1.Cl.Cl |
| > 222 °C (dec.) | COc1ccc(-n2cnc(Cn3ccnc3C)c2)cc1C(F)(F)F.Cl.Cl |
| > 226 °C (dec.) | CCc1nccn1Cc1cn(-c2ccc(OC)c(C(F)(F)F)c2)cn1.Cl.Cl |
| 178 to 179 °C | CCc1nccn1Cc1cn(-c2ccc(C)c(Cl)c2)cn1.Cl.Cl |
| 179 to 180 °C | CCc1nccn1Cc1cn(-c2ccc(Cl)c(C(F)(F)F)c2)cn1.Cl.Cl |
| > 250 °C | Cc1nccn1Cc1cn(-c2ccc(Cl)c(C(F)(F)F)c2)cn1.Cl.Cl |
| 248 to 253 °C | CCc1nccn1Cc1cn(-c2ccc(-c3ccccc3)cc2)cn1.Cl.Cl |
| 169 to 175 °C | Cc1nccn1Cc1cn(-c2ccc(-c3ccccc3)cc2)cn1.Cl.Cl |
| > 180 °C (dec.) | CCc1nccn1Cc1cn(-c2ccc(C(C)C)c(C)c2)cn1.Cl.Cl |
| 242 to 243 °C | CSc1ccc(-n2cnc(Cn3ccnc3C)c2)cc1 (as salt: hydrochloride) [Example 27] |

Source: patent publication US6667335B2, “Imidazole derivatives” (Hoffmann-La Roche Inc., priority 2001, dated 2003)
